According to US20220104495A1, “THEOPHYLLINE DERIVATIVES WITH NEMATOCIDAL ACTIVITY, THEIR AGRONOMIC COMPOSITIONS AND RELATIVE USE” (ISAGRO S.p.A., priority 2019, published 2022):

System: Meloidogyne sp.
Assay: Determination of the nematocidal activity against Meloidogyne sp. (potted tomato, greenhouse)
Type: in vivo
Conditions: for PLANT DEVELOPMENT (fresh weight g) / INFESTED ROOT % / GALL INDEX (scale 0-10) / reduction in parasitosis at the root level (in words): tomatoes, cv Marmande; for PLANT DEVELOPMENT (fresh weight g) / INFESTED ROOT % / GALL INDEX (scale 0-10): dose 4,000 g/hectare, survey 30 days after transplantation; for PLANT DEVELOPMENT (fresh weight g): infested blank 13; for INFESTED ROOT %: infested blank 70; for GALL INDEX (scale 0-10): Bridge-Page scale, 0 = 0% of root affected, 10 = 100% infested root, infested blank 7; for reduction in parasitosis at the root level (in words): 4,000 g/hectare, 30 days, comment on Table 6
Method: The tests aimed at testing the nematocidal activity of the product under examination are carried out using inocula taken from a cultivation of Meloidogyne sp. maintained on potted tomato and cucumber plants and grown in a greenhouse.
In order to carry out the experiments, portions of roots having a large number of galls and soil are taken from the infested pots, in which larvae are present starting from the second stage of age.
New pots having a diameter of 15 cm are half-filled with sterile earth. The portions of infested roots, previously cleaned, are placed on it to be able to correctly assess the degree of infestation and ensure that each pot contains the same nematic charge. 200-300 g of infested soil are then added, which are covered with a thin layer of sterile earth.
The treatment is carried out by pouring 100 ml of hydroacetonic solution onto the surface of the soil in which the product to be tested has been dissolved to obtain a concentration ranging from 70 to 100 ppm.
Tomato or cucumber seedlings at the stage of two or three actual leaves are transplanted in the pots thus prepared, after one or seven days from the application. Different cultivars of tomatoes (Microtom, Marmande) or cucumbers (Lungo della Cina) are used, having a different sensitivity to the parasite and different times of growth. In particular, for estimating the final production, a variety of ornamental tomatoes (cv Microtom) is used, whose seedlings are small in size and able to reach the maturity of the fruit in about two months in pots and under greenhouse conditions.
The containment capacity of the parasite is detected, 30 and 60 days after the transplantation, considering the development of the plant (whose fresh weight is detected) and the presence of galls on the roots.
This is estimated using both the infestation scale proposed by Bridge-Page (Tropical Pest Management 26 (3): 296-298, September 1980), according to which the value zero corresponds to 0% of root affected and the value 10 corresponds to 100% of infested root, and also considering the percentage of root mass affected.
Table 6 indicates the results relating to the effectiveness of Compounds Nr.

SMILES | nematocidal activity of caffeine as verified by the Applicant (in words) (attack of the parasite and formation of galls on the root system, conditions not given) | PLANT DEVELOPMENT (fresh weight g) [g] | INFESTED ROOT % [%] | GALL INDEX (scale 0-10) | reduction in parasitosis at the root level (in words)
Cn1c(=O)c2c(ncn2C)n(C)c1=O [Caffeine, caffeine, reference compound] | unsatisfactory from the point of view of nematocidal activity | 12 | 70 |  | 
Cn1c(=O)c2c(ncn2CC[S+]([O-])CCC(F)=C(F)F)n(C)c1=O (centres unmarked) [Comp. Nr. 8, 1,3-dimethyl-7-[2-(3,4,4-trifluorobut-3-ene-1-sulfinyl)ethyl]-3,7-dihydro-1H-purin-2,6-dione] |  | 17 | 50 | 5 | 
Cn1c(=O)c2c(ncn2CCS(=O)(=O)CCC(F)=C(F)F)n(C)c1=O [Comp. Nr. 11, 1,3-dimethyl-7-[2-(3,4,4-trifluorobut-3-ene-1-sulfonyl)ethyl]-3,7-dihydro-1H-purin-2,6-dione] |  | 16 | 45 | 4.5 | decisive reduction in parasitosis at the root level
Cn1c(=O)c2c(ncn2CC(=O)OCCC(F)=C(F)F)n(C)c1=O [Comp. Nr. 21, 3,4,4-trifluorobut-3-en-1-yl (1,3-dimethyl-2,6-dioxo-1,2,3,6-tetrahydro-7H-purin-7-yl) acetate] |  | 20 | 20 | 2 | decisive reduction in parasitosis at the root level
